“And” between values parts separate entries of the source, which are not always exact repeats. Identical values can stand only once.
Legend:
Type in all cases: in vivo, human
[1] = system: adjunctive MDD, including treatment-resistant MDD (TRD) and MDD with suicidal ideation (SUI); test: Biomarker signature (3MM, 2MM, CRP) analysis of MADRS treatment effect across clinical trials (Example 6)
Protocol: Samples of venous blood were obtained from patients and healthy control subjects from subject described in Example 5 and from the other clinical trials referenced herein. Serum or plasma was prepared from the samples of venous blood. Measurements of human CRP and IL-6-R were performed in serum using an MSD Sector 6000 with the kits #K151STD and K151ALC (MesoScale Discovery, Rockville, MD). Human TNFα was quantified in serum using a Simoa HD-1 analyzer with kit #143 (Quanterix, Lexington, MA). All measures were performed according to kit manufacturer's recommendations.
As used in the following biomarker assay analysis, treatment (TRT) refers to treatment with intranasal esketamine plus optionally an oral antidepressant and placebo (PBO) refers to treatment with a placebo plus optionally an oral antidepressant.
The following biomarker signatures were employed: • 3MM: Inflammatory biomarker signature with positive status defined by CRP >3 mg/L and (TNFα>4 pg/mL or sIL6R>25 ng/mL). • 2MM: Inflammatory biomarker signature with positive status defined by CRP >3 mg/L and sIL6R>25 ng/mL. • CRP: Inflammatory biomarker signature with positive status defined by CRP >3 mg/L/
The 3MM signature was tested in clinical trials for adjunctive MDD, including treatment-resistant MDD (TRD) and MDD with suicidal ideation (SUI). […] Significant was driven by Esketamine (ESK) TRD trials.

subjects with TRD [2] = test: MADRS, intranasal esketamine plus oral antidepressant, open-label long-term study (Example 5)
subjects with TRD [3] = test: SDS remission (functional recovery), esketamine long-term study (Example 5); conditions: observed case
Description: Functional recovery measured by SDS followed with some lag time after mood improvement. […] See, FIG. 32.

subjects with TRD [4] = test: PHQ-9 total score, esketamine long-term study (Example 5)
Description: This is an open-label, multicenter, long-term study to evaluate the efficacy of intranasal esketamine plus a newly initiated oral antidepressant in subjects with TRD ([…] 3002/NCT02418585).
Each subject participated in up to 4 phases: up to 4-week screening phase (direct-entry subjects only), a 4-week open-label induction (IND) phase (direct-entry subjects and transferred-entry non responder subjects), a 48-week open-label optimization/maintenance (OP/MA) phase (all responder subjects from the open label IND phase of the current study, and transferred-entry responder subjects), and a 4-week follow-up phase. The maximum duration of the subject's participation in […] 3004 study was 60 weeks for direct-entry subjects; 56 weeks for transferred-entry non-responder subjects, and 52 weeks for transferred-entry responder subjects. The sample size of 750 was estimated to have at least 300 subjects received treatment with intranasal esketamine for 6 months and at least 100 subjects for 12 months. In addition, transfer-entry subjects were enrolled from 3005 study to get 100 elderly subjects dosed with esketamine. See, FIG. 30 for the trial design.
The efficacy analyses are based on the full (IND) analysis set and the full (OP/MA) analysis set. […] A total score (0 to 60) is calculated by summing the scores of all 10 items. […]

Weight change, Example 1 = conditions: n = 85; for Mean weight, Withdrawal Baseline, mean (SE): after 6 weeks in the double-blind treatment phase
Description: At the lead-in baseline timepoint, the mean weight for subjects in the placebo group was 76.17 kg compared to 78.66 in the aticaprant group. After 6 weeks in the double-blind treatment phase, the mean weight in the placebo group was 75.75 kg compared to 78.57 kg in the aticaprant group. […] This is unexpected because other adjunctive treatments for MDD result in a mean weight increase. See, Thase M, et al. J Clin Psych. 2015: 76(9), 1224-1231; Thase, J Clin Psych. 2015, 76(9):1232-1240; El Khalili, Int J Neuropsychopharmacol. 2010, 13, 917-932; Marcus, J. Clin. Psychopharmacol. […] Nashville, Tenn, ACNP, 2008; Earley, American College of Neuropsychopharmacology, 2007, Annual Meeting Abstracts (Boca Raton, Fla, Dec. 9-13, 2007). Nashville, TN, ACNP, 2007). See, Table 29.

[5] = across the esketamine TRD trials, end of double blind treatment
[6] = endpoint of OP/MA phase, responders proceeding to OP/MA

SMILES: CN[C@]1(c2ccccc2Cl)CCCCC1=O [esketamine, (S)-2-(2-chlorophenyl)-2-(methylamino)cyclohexanone]
- treatment effect, change in MADRS, biomarker signature negative patients ([1]; TRD2003, Japanese patients): 2.83 points
- treatment effect, change in MADRS, biomarker signature positive patients ([1]; TRD2003, Japanese patients, small n): 11.69 points
- Signature advantage (difference between subtypes), 3MM ([1]; across the esketamine TRD trials): 5.8 point
- Treatment effect over placebo in 3MM biomarker signature negative subjects (TE SigNeg) [1, 5]: 2 MADRS points and 2.0 MADRS points
- Treatment effect over placebo in 3MM biomarker signature positive subjects (TE SigPos) [1, 5]: 7.8 MADRS points
- 3MM status at baseline as predictor of treatment effect ([1]; esketamine trials with suicidal ideation (SUI)): did not predict treatment effect
- MADRS total score: mean change (SD) from Baseline (IND) to End Point (IND) (subjects with TRD [2]; 4-week open-label induction phase, intranasal 28/56/84 mg twice weekly): −16.4 (8.76)
- MADRS total score: mean change (SD) from Baseline (OP/MA) to End Point (OP/MA) (subjects with TRD [2]; 48-week optimization/maintenance phase): 0.3 (8.12)
- remission rate (MADRS total score ≤12) (subjects with TRD [2]; End Point, IND phase): 47.2%
- response rate (≥50% improvement from Baseline (IND) in MADRS total score) (subjects with TRD [2]; End Point, IND phase): 78.4%
- remitters (MADRS total score ≤12) (subjects with TRD [2]; [6]): 58.2%
- responders (≥50% improvement in MADRS total score) (subjects with TRD [2]; [6]): 76.5%
- remission rate measured by SDS (subjects with TRD [3]; OP/MA phase week 4): 25.2%
- remission rate measured by SDS (subjects with TRD [3]; OP/MA phase week 48): 51.1%
- remission rate measured by SDS (subjects with TRD [3]; endpoint of the IND phase): 21.1%
- PHQ-9 total score: mean change (SD) from Baseline (IND) to End Point (IND) (subjects with TRD [4]; induction phase): −8.9 (6.67)
- PHQ-9 total score: mean change (SD) from Baseline (OP/MA) to End Point (OP/MA) (subjects with TRD [4]; optimization/maintenance phase): −0.2 (5.65)

SMILES: Cc1cc(C)cc(C2CCCN2Cc2ccc(Oc3ccc(C(N)=O)cc3F)cc2)c1 (stereo not drawn) [aticaprant, 3-fluoro-4-4-2-(3,5-dimethylphenyl)pyrrolidin-1-yl-methylphenoxybenzamide]
- Mean weight, Lead-in Baseline, mean (SE) (Weight change, Example 1): 78.66 kg
- Mean weight, Screening, mean (SE) (Weight change, Example 1): 78.42 (1.65) kg
- Weight: Absolute Change (Withdrawal − Lead-in) (Weight change, Example 1): -0.09 kg
- Weight: Relative % Change (Weight change, Example 1; Withdrawal vs Lead-in): −0.11%
- Mean weight, Withdrawal Baseline, mean (SE) (Weight change, Example 1): 78.57 kg
- Mean weight, Withdrawal Baseline, mean (SE) (Weight change, Example 1; listed as Aticaprant): 78.57 (1.71) kg
- Mean weight, Lead-in Baseline, mean (SE) (Weight change, Example 1; listed as Aticaprant): 78.66 (1.65) kg
